Measured values as given in paper PMC11249646, “Small-Molecule Disruptors of the Interaction between Calcium- and Integrin-Binding Protein 1 and Integrin αIIbβ3 as Novel Antiplatelet Agents” (ACS Pharmacology & Translational Science, 2024).

molecular target: T1, CIB1 and αIIb interaction (CIB1-GST : F-αIIb peptide) (Homo sapiens, UniProt Q99828); experiment: FP assay, 1536-well qHTS format (primary and confirmatory screen); type: binding; settings: confirmatory screen, YES/NO call
T1 construct: made in house; host or cells: BL-21 plus RIL cells (E. coli)
T1 sequence (Q99828 1-191): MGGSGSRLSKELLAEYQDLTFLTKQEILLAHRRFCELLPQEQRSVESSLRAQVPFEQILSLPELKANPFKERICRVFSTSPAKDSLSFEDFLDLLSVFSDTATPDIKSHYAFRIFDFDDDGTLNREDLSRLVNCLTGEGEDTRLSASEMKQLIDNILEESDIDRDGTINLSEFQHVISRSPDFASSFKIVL

Row | CONFIRMATORY SCREEN Confirm? | SMILES
1 | YES | O=C(O)c1cccc(CN2C(=O)/C(=C(\c3ccccc3)c3ccc(Cl)cc3)c3ccccc32)c1 [NCGC00378823-01]
2 | YES | CC[S+]([O-])c1nc(-c2cccc(OCc3ccccc3)c2)cc(C(F)(F)F)n1 (centres unmarked) [NCGC00379201-03]

Row | SMILES | CONFIRMATORY SCREEN Confirm?
3 | COC(=O)C12C(=O)C(C)(O)C(=O)C1(C)C(C)=CC1C34CCC(OC3=O)C(C)(CO)C4CCC12C (centres unmarked) [NCGC00380147-01] | YES

same assay, conditions: confirmatory screen, qHTS curve class; negative sign = inhibitory curve

Row | CONFIRMATORY SCREEN Curve Class | SMILES
4 | -2.2 | O=C(O)c1cccc(CN2C(=O)/C(=C(\c3ccccc3)c3ccc(Cl)cc3)c3ccccc32)c1 [NCGC00378823-01]
5 | -1.2 | CC[S+]([O-])c1nc(-c2cccc(OCc3ccccc3)c2)cc(C(F)(F)F)n1 (centres unmarked) [NCGC00379201-03]

Row | SMILES | CONFIRMATORY SCREEN Curve Class
6 | COC(=O)C12C(=O)C(C)(O)C(=O)C1(C)C(C)=CC1C34CCC(OC3=O)C(C)(CO)C4CCC12C (centres unmarked) [NCGC00380147-01] | -2.2

same assay, conditions: confirmatory screen; negative = inhibition

Row | CONFIRMATORY SCREEN Efficacy (%) | SMILES
7 | -63% | O=C(O)c1cccc(CN2C(=O)/C(=C(\c3ccccc3)c3ccc(Cl)cc3)c3ccccc32)c1 [NCGC00378823-01]
8 | -63% | CC[S+]([O-])c1nc(-c2cccc(OCc3ccccc3)c2)cc(C(F)(F)F)n1 (centres unmarked) [NCGC00379201-03]

Row | SMILES | CONFIRMATORY SCREEN Efficacy (%)
9 | COC(=O)C12C(=O)C(C)(O)C(=O)C1(C)C(C)=CC1C34CCC(OC3=O)C(C)(CO)C4CCC12C (centres unmarked) [NCGC00380147-01] | -42%

same assay, conditions: confirmatory screen; read-out: CONFIRMATORY SCREEN IC50

Row | IC50 | SMILES
10 | 44.7 µM | O=C(O)c1cccc(CN2C(=O)/C(=C(\c3ccccc3)c3ccc(Cl)cc3)c3ccccc32)c1 [NCGC00378823-01]
11 | 0.4 µM | CC[S+]([O-])c1nc(-c2cccc(OCc3ccccc3)c2)cc(C(F)(F)F)n1 (centres unmarked) [NCGC00379201-03]

Row | SMILES | IC50
12 | COC(=O)C12C(=O)C(C)(O)C(=O)C1(C)C(C)=CC1C34CCC(OC3=O)C(C)(CO)C4CCC12C (centres unmarked) [NCGC00380147-01] | 17.8 µM

same assay, conditions: qHTS FP screen hits, Table S2; negative = inhibition

Row | Efficacy (%) | SMILES
13 | -34% | O=C(O)c1cccc(CN2C(=O)/C(=C(\c3ccccc3)c3ccc(Cl)cc3)c3ccccc32)c1 [NCGC00378823-01]
14 | -39% | CC[S+]([O-])c1nc(-c2cccc(OCc3ccccc3)c2)cc(C(F)(F)F)n1 (centres unmarked) [NCGC00379201-03]

Row | SMILES | Efficacy (%)
15 | COC(=O)C12C(=O)C(C)(O)C(=O)C1(C)C(C)=CC1C34CCC(OC3=O)C(C)(CO)C4CCC12C (centres unmarked) [NCGC00380147-01] | -32%

same assay, conditions: qHTS FP screen hits, Table S2; one class per curve where COUNT > 1; negative sign = inhibitory curve

Row | Curve Class | SMILES
16 | -1.2 | O=C(O)c1cccc(CN2C(=O)/C(=C(\c3ccccc3)c3ccc(Cl)cc3)c3ccccc32)c1 [NCGC00378823-01]
17 | -1.2 | CC[S+]([O-])c1nc(-c2cccc(OCc3ccccc3)c2)cc(C(F)(F)F)n1 (centres unmarked) [NCGC00379201-03]

Row | SMILES | Curve Class
18 | COC(=O)C12C(=O)C(C)(O)C(=O)C1(C)C(C)=CC1C34CCC(OC3=O)C(C)(CO)C4CCC12C (centres unmarked) [NCGC00380147-01] | -2.2

same assay, conditions: qHTS FP screen hits, Table S2; read-out: IC50

Row | IC50 | SMILES
19 | 39.8 µM | O=C(O)c1cccc(CN2C(=O)/C(=C(\c3ccccc3)c3ccc(Cl)cc3)c3ccccc32)c1 [NCGC00378823-01]
20 | 2.2 µM | CC[S+]([O-])c1nc(-c2cccc(OCc3ccccc3)c2)cc(C(F)(F)F)n1 (centres unmarked) [NCGC00379201-03]

Row | SMILES | IC50
21 | COC(=O)C12C(=O)C(C)(O)C(=O)C1(C)C(C)=CC1C34CCC(OC3=O)C(C)(CO)C4CCC12C (centres unmarked) [NCGC00380147-01] | 28.2 µM

molecular target: T2, GST-CIB1 : F-scrambled peptide (Homo sapiens, UniProt Q99828); experiment: FP scrambled-peptide counter screen, 384-well format; type: binding; settings: F-scrambled peptide
T2 construct: made in house; host or cells: BL-21 plus RIL cells (E. coli)
T2 sequence (Q99828 1-191): T1 sequence (Q99828 1-191)

Row | 384-well COUNTERSCREEN Efficacy (%) | SMILES
22 | 0% | O=C(O)c1cccc(CN2C(=O)/C(=C(\c3ccccc3)c3ccc(Cl)cc3)c3ccccc32)c1 [NCGC00378823-01]
23 | 30% | CC[S+]([O-])c1nc(-c2cccc(OCc3ccccc3)c2)cc(C(F)(F)F)n1 (centres unmarked) [NCGC00379201-03]

Row | SMILES | 384-well COUNTERSCREEN Efficacy (%)
24 | COC(=O)C12C(=O)C(C)(O)C(=O)C1(C)C(C)=CC1C34CCC(OC3=O)C(C)(CO)C4CCC12C (centres unmarked) [NCGC00380147-01] | -50%

same assay, conditions: F-scrambled peptide; *: Curve in opposite direction

Row | 384-well COUNTERSCREEN Confirm? | SMILES
25 | YES | O=C(O)c1cccc(CN2C(=O)/C(=C(\c3ccccc3)c3ccc(Cl)cc3)c3ccccc32)c1 [NCGC00378823-01]
26 | YES* | CC[S+]([O-])c1nc(-c2cccc(OCc3ccccc3)c2)cc(C(F)(F)F)n1 (centres unmarked) [NCGC00379201-03]

same assay, conditions: F-scrambled peptide; read-out: 384-well COUNTERSCREEN IC50

Row | IC50 | SMILES
27 | > 120 µM | O=C(O)c1cccc(CN2C(=O)/C(=C(\c3ccccc3)c3ccc(Cl)cc3)c3ccccc32)c1 [NCGC00378823-01]
28 | > 120 µM | CC[S+]([O-])c1nc(-c2cccc(OCc3ccccc3)c2)cc(C(F)(F)F)n1 (centres unmarked) [NCGC00379201-03]

Row | SMILES | IC50
29 | COC(=O)C12C(=O)C(C)(O)C(=O)C1(C)C(C)=CC1C34CCC(OC3=O)C(C)(CO)C4CCC12C (centres unmarked) [NCGC00380147-01] | 26.4 µM

molecular target: T2, GST-CIB1 : F-scrambled peptide; experiment: FP scrambled-peptide counter screen, 1536-well format; type: binding; settings: scrambled-peptide counterscreen

Row | COUNTERSCREEN Efficacy (%) | SMILES
30 | -27% | O=C(O)c1cccc(CN2C(=O)/C(=C(\c3ccccc3)c3ccc(Cl)cc3)c3ccccc32)c1 [NCGC00378823-01]
31 | 21% | CC[S+]([O-])c1nc(-c2cccc(OCc3ccccc3)c2)cc(C(F)(F)F)n1 (centres unmarked) [NCGC00379201-03]

Row | SMILES | COUNTERSCREEN Efficacy (%)
32 | COC(=O)C12C(=O)C(C)(O)C(=O)C1(C)C(C)=CC1C34CCC(OC3=O)C(C)(CO)C4CCC12C (centres unmarked) [NCGC00380147-01] | -27%

same assay, conditions: scrambled-peptide counterscreen, YES/NO call

Row | COUNTERSCREEN Confirm? | SMILES
33 | YES | O=C(O)c1cccc(CN2C(=O)/C(=C(\c3ccccc3)c3ccc(Cl)cc3)c3ccccc32)c1 [NCGC00378823-01]
34 | YES | CC[S+]([O-])c1nc(-c2cccc(OCc3ccccc3)c2)cc(C(F)(F)F)n1 (centres unmarked) [NCGC00379201-03]

Row | SMILES | COUNTERSCREEN Confirm?
35 | COC(=O)C12C(=O)C(C)(O)C(=O)C1(C)C(C)=CC1C34CCC(OC3=O)C(C)(CO)C4CCC12C (centres unmarked) [NCGC00380147-01] | YES

same assay, conditions: scrambled-peptide counterscreen, qHTS curve class

Row | COUNTERSCREEN Curve Class | SMILES
36 | 4 | O=C(O)c1cccc(CN2C(=O)/C(=C(\c3ccccc3)c3ccc(Cl)cc3)c3ccccc32)c1 [NCGC00378823-01]
37 | 4 | CC[S+]([O-])c1nc(-c2cccc(OCc3ccccc3)c2)cc(C(F)(F)F)n1 (centres unmarked) [NCGC00379201-03]

Row | SMILES | COUNTERSCREEN Curve Class
38 | COC(=O)C12C(=O)C(C)(O)C(=O)C1(C)C(C)=CC1C34CCC(OC3=O)C(C)(CO)C4CCC12C (centres unmarked) [NCGC00380147-01] | 4

molecular target: T3, CIB1 and αIIb interaction (GST-CIB1 : F-αIIb peptide) (Homo sapiens, UniProt Q99828); experiment: FP assay, 384-well format (screen); type: binding; design: 384-well SCREEN Efficacy (%): concentration or dose not given beside the values; settings: F-αIIb peptide
T3 construct: made in house; host or cells: BL-21 plus RIL cells (E. coli)
T3 sequence (Q99828 1-191): T1 sequence (Q99828 1-191)

Row | 384-well SCREEN Efficacy (%) | SMILES
39 | 70% | O=C(O)c1cccc(CN2C(=O)/C(=C(\c3ccccc3)c3ccc(Cl)cc3)c3ccccc32)c1 [NCGC00378823-01]
40 | 70% | CC[S+]([O-])c1nc(-c2cccc(OCc3ccccc3)c2)cc(C(F)(F)F)n1 (centres unmarked) [NCGC00379201-03]

Row | SMILES | 384-well SCREEN Efficacy (%)
41 | COC(=O)C12C(=O)C(C)(O)C(=O)C1(C)C(C)=CC1C34CCC(OC3=O)C(C)(CO)C4CCC12C (centres unmarked) [NCGC00380147-01] | 80%

same assay, conditions: F-αIIb peptide; YES/NO

Row | 384-well SCREEN Confirm? | SMILES
42 | YES | O=C(O)c1cccc(CN2C(=O)/C(=C(\c3ccccc3)c3ccc(Cl)cc3)c3ccccc32)c1 [NCGC00378823-01]
43 | YES | CC[S+]([O-])c1nc(-c2cccc(OCc3ccccc3)c2)cc(C(F)(F)F)n1 (centres unmarked) [NCGC00379201-03]

Row | SMILES | 384-well SCREEN Confirm?
44 | COC(=O)C12C(=O)C(C)(O)C(=O)C1(C)C(C)=CC1C34CCC(OC3=O)C(C)(CO)C4CCC12C (centres unmarked) [NCGC00380147-01] | YES

same assay, conditions: F-αIIb peptide; read-out: 384-well SCREEN IC50

Row | IC50 | SMILES
45 | 63.4 µM | O=C(O)c1cccc(CN2C(=O)/C(=C(\c3ccccc3)c3ccc(Cl)cc3)c3ccccc32)c1 [NCGC00378823-01]
46 | 0.32 µM | CC[S+]([O-])c1nc(-c2cccc(OCc3ccccc3)c2)cc(C(F)(F)F)n1 (centres unmarked) [NCGC00379201-03]

Row | SMILES | IC50
47 | COC(=O)C12C(=O)C(C)(O)C(=O)C1(C)C(C)=CC1C34CCC(OC3=O)C(C)(CO)C4CCC12C (centres unmarked) [NCGC00380147-01] | 32.8 µM
